# Reference: ChEMBL document CHEMBL1201862, “PubChem BioAssay data set” (2004)
# “And” between values parts separate entries of the source, which are not always exact repeats. Equal entries are not always repeated.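 In this assay, cells in 96-well plates receive the compound at five concentrations for 48 hours. Endpoints are linearly interpolated between the surrounding concentrations. At the GI50, growth is halved.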 The source made the active and inactive calls. Rule as the data show it: active = GI50 up to about 1.1 µM and inactive = higher.
# Assays:
# Test in all cases: inhibition of tumour cell growth, NCI panel, 48 h
# OVCAR-3 = tested on: OVCAR-3
# ACHN = tested on: ACHN
# RXF 393 = tested on: RXF 393
# LOX IMVI = tested on: LOX IMVI
# Malme-3M = tested on: Malme-3M
# OVCAR-8 = tested on: OVCAR-8
# SK-MEL-28 = tested on: SK-MEL-28
# MDA-N = tested on: MDA-N
# UACC-62 = tested on: UACC-62
# HCT-15 = tested on: HCT-15
# HOP-62 = tested on: HOP-62
# UACC-257 = tested on: UACC-257
# HT-29 = tested on: HT-29
# SK-MEL-5 = tested on: SK-MEL-5
# U-251 = tested on: U-251
# HOP-92 = tested on: HOP-92
# NCI-H522 = tested on: NCI-H522
# A549 = tested on: A549
# TK-10 = tested on: TK-10
# HCC 2998 = tested on: HCC 2998
# SN12C = tested on: SN12C
# RPMI-8226 = tested on: RPMI-8226
# OVCAR-4 = tested on: OVCAR-4
# A498 = tested on: A498
# MDA-MB-435 = tested on: MDA-MB-435
# SW-620 = tested on: SW-620
# NCI-H226 = tested on: NCI-H226
# SK-OV-3 = tested on: SK-OV-3
# SK-MEL-2 = tested on: SK-MEL-2
# K562 = tested on: K562
# OVCAR-5 = tested on: OVCAR-5
# MCF7 = tested on: MCF7
# MOLT-4 = tested on: MOLT-4
# CAKI-1 = tested on: CAKI-1
# NCI-H23 = tested on: NCI-H23
# MDA-MB-231 = tested on: MDA-MB-231
# UO-31 = tested on: UO-31
# SNB-19 = tested on: SNB-19
# T47D = tested on: T47D
# NCI-H460 = tested on: NCI-H460
# SNB-75 = tested on: SNB-75
# SF-268 = tested on: SF-268
# IGROV-1 = tested on: IGROV-1
# M14 = tested on: M14
# Hs-578T = tested on: Hs-578T
# DU-145 = tested on: DU-145
# SF-539 = tested on: SF-539
# HCT-116 = tested on: HCT-116
# EKVX = tested on: EKVX
# CCRF-CEM = tested on: CCRF-CEM
# COLO 205 = tested on: COLO 205
# PC-3 = tested on: PC-3
# KM12 = tested on: KM12
# 786-0 = tested on: 786-0
# BT-549 = tested on: BT-549
# SF-295 = tested on: SF-295
# HL-60 = tested on: HL-60
# SR = tested on: SR
# NCI/ADR-RES = tested on: NCI/ADR-RES
smiles,measurement,setting,value
Nc1nc(Br)nc2ncn(C3CC(O)C(CO)O3)c12 (stereo not given),GI50,OVCAR-3,> 100 µM (inactive)
same,GI50,ACHN,10.7 µM (inactive)
same,GI50,RXF 393,> 100 µM (inactive)
same,GI50,LOX IMVI,> 72.9 µM (inactive)
same,GI50,Malme-3M,> 100 µM (inactive)
same,GI50,OVCAR-8,236 nM (active)
same,GI50,SK-MEL-28,> 100 µM (inactive)
same,GI50,MDA-N,> 68.7 µM (inactive)
same,GI50,UACC-62,11.9 µM (inactive)
same,GI50,HCT-15,> 100 µM
same,GI50,HOP-62,> 100 µM (inactive)
same,GI50,UACC-257,> 100 µM (inactive)
same,GI50,HT-29,52.7 µM (inactive)
same,GI50,SK-MEL-5,60 µM (inactive)
same,GI50,U-251,> 53 µM (inactive)
same,GI50,HOP-92,2.42 µM (inactive)
same,GI50,NCI-H522,> 100 µM (inactive)
same,GI50,A549,18 µM (inactive)
same,GI50,TK-10,> 100 µM (inactive)
same,GI50,HCC 2998,> 60.8 µM (inactive)
same,GI50,SN12C,10 µM (inactive)
same,GI50,RPMI-8226,> 90.2 µM (inactive)
same,GI50,OVCAR-4,> 100 µM (inactive)
same,GI50,A498,> 100 µM (inactive)
same,GI50,MDA-MB-435,> 100 µM (inactive)
same,GI50,SW-620,> 24.8 µM (inactive)
same,GI50,NCI-H226,> 68.1 µM (inactive)
same,GI50,SK-OV-3,> 100 µM (inactive)
same,GI50,SK-MEL-2,> 100 µM (inactive)
same,GI50,K562,23.4 µM (inactive)
same,GI50,OVCAR-5,> 100 µM (inactive)
same,GI50,MCF7,> 21.3 µM (inactive)
same,GI50,MOLT-4,21.2 nM (active)
same,GI50,CAKI-1,16 µM (inactive)
same,GI50,NCI-H23,3.76 µM (inactive)
same,GI50,MDA-MB-231,> 100 µM (inactive)
same,GI50,UO-31,7.21 µM (inactive)
same,GI50,SNB-19,42.2 µM (inactive)
same,GI50,T47D,> 100 µM (inactive)
same,GI50,NCI-H460,85.1 µM (inactive)
same,GI50,SNB-75,> 100 µM (inactive)
same,GI50,SF-268,> 100 µM (inactive)
same,GI50,IGROV-1,> 100 µM (inactive)
same,GI50,M14,3.05 µM (inactive)
same,GI50,Hs-578T,> 100 µM (inactive)
same,GI50,DU-145,> 100 µM (inactive)
same,GI50,SF-539,58.7 µM (inactive)
same,GI50,HCT-116,26.4 µM (inactive)
same,GI50,EKVX,> 100 µM (inactive)
same,GI50,CCRF-CEM,< 0.01 µM (active)
same,GI50,COLO 205,67.3 µM (inactive)
same,GI50,PC-3,> 100 µM (inactive)
same,GI50,KM12,> 100 µM (inactive)
same,GI50,786-0,77.3 µM (inactive)
same,GI50,BT-549,46 µM (inactive)
same,GI50,SF-295,> 100 µM (inactive)
CC(=O)O[C@H]1CC2C(C3CC[C@H](C(C)CCC(N)=O)[C@]31C)[C@H](OC(C)=O)C[C@@H]1CC3(CC[C@]21C)OOC1(CCC(C)CC1)OO3 (stereo not given in full),GI50,OVCAR-3,2.07 µM (inactive) and 1.79 µM (inactive)
same,GI50,ACHN,1.8 µM (inactive)
same,GI50,RXF 393,1.95 µM (inactive) and 2.69 µM (inactive)
same,GI50,LOX IMVI,1.83 µM (inactive) and 1.92 µM (inactive)
same,GI50,Malme-3M,2.12 µM (inactive) and 2.53 µM (inactive)
same,GI50,OVCAR-8,1.71 µM (inactive) and 1.47 µM (inactive)
same,GI50,MDA-N,1.87 µM (inactive) and 2.07 µM (inactive)
same,GI50,HCT-15,1.93 µM
same,GI50,HL-60,2.32 µM (inactive) and 2.93 µM (inactive)
same,GI50,UACC-257,5.37 µM (inactive) and 4.6 µM (inactive)
same,GI50,HT-29,2.51 µM (inactive) and 1.54 µM (inactive)
same,GI50,SK-MEL-5,1.74 µM (inactive) and 2.96 µM (inactive)
same,GI50,U-251,1.66 µM (inactive)
same,GI50,HOP-92,2.79 µM (inactive) and 1.65 µM (inactive)
same,GI50,NCI-H522,1.4 µM (inactive) and 1.71 µM (inactive)
same,GI50,A549,1.24 µM (inactive) and 1.79 µM (inactive)
same,GI50,TK-10,1.95 µM (inactive) and 2.72 µM (inactive)
same,GI50,HCC 2998,2.06 µM (inactive) and 2.38 µM (inactive)
same,GI50,SN12C,1.67 µM (inactive) and 2.27 µM (inactive)
same,GI50,RPMI-8226,1.61 µM (inactive) and 1.5 µM (inactive)
same,GI50,OVCAR-4,1.32 µM (inactive) and 1.48 µM (inactive)
same,GI50,A498,11.7 µM (inactive) and 14.3 µM (inactive)
same,GI50,MDA-MB-435,2.06 µM (inactive) and 1.61 µM (inactive)
same,GI50,SW-620,3.02 µM (inactive) and 2.11 µM (inactive)
same,GI50,NCI-H226,1.47 µM (inactive) and 2.09 µM (inactive)
same,GI50,SK-MEL-2,1.91 µM (inactive)
same,GI50,SR,867 nM (active) and 1.47 µM (inactive)
same,GI50,K562,2.48 µM (inactive) and 3.99 µM (inactive)
same,GI50,OVCAR-5,2.09 µM (inactive) and 2.04 µM (inactive)
same,GI50,MCF7,2.04 µM (inactive) and 2.65 µM (inactive)
same,GI50,MOLT-4,1.72 µM (inactive) and 1.47 µM (inactive)
same,GI50,CAKI-1,2.29 µM (inactive) and 1.71 µM (inactive)
same,GI50,NCI-H23,1.74 µM (inactive) and 2.23 µM (inactive)
same,GI50,MDA-MB-231,2.21 µM (inactive)
same,GI50,UO-31,1.56 µM (inactive)
same,GI50,T47D,1.49 µM (inactive) and 2.01 µM (inactive)
same,GI50,NCI-H460,1.62 µM (inactive) and 2.28 µM (inactive)
same,GI50,SF-268,1.62 µM (inactive) and 1.83 µM (inactive)
same,GI50,M14,2.22 µM (inactive) and 2.94 µM (inactive)
same,GI50,Hs-578T,2.07 µM (inactive) and 2.38 µM (inactive)
same,GI50,SF-539,1.9 µM (inactive) and 2.7 µM (inactive)
same,GI50,HCT-116,1.94 µM (inactive) and 2.26 µM (inactive)
same,GI50,CCRF-CEM,1.52 µM (inactive)
same,GI50,COLO 205,1.56 µM (inactive)
same,GI50,PC-3,2.69 µM (inactive)
same,GI50,KM12,1.98 µM (inactive) and 1.83 µM (inactive)
same,GI50,NCI/ADR-RES,2.55 µM (inactive) and 1.65 µM (inactive)
same,GI50,786-0,1.86 µM (inactive) and 1.77 µM (inactive)
same,GI50,BT-549,2.11 µM (inactive) and 1.72 µM (inactive)
same,GI50,SF-295,2.99 µM (inactive) and 2 µM (inactive)
Cc1cn([C@H]2C[C@@H]3[C@@H](COC(CCl)N3O)O2)c(=O)[nH]c1=O (stereo not given in full),GI50,OVCAR-3,> 100 µM (inactive)
same,GI50,RXF 393,> 100 µM (inactive)
same,GI50,LOX IMVI,> 100 µM (inactive)
same,GI50,Malme-3M,41.3 µM (inactive)
same,GI50,OVCAR-8,> 100000 nM (inactive)
same,GI50,SK-MEL-28,> 100 µM (inactive)
same,GI50,MDA-N,> 100 µM (inactive)
same,GI50,UACC-62,> 100 µM (inactive)
same,GI50,HCT-15,> 100 µM
same,GI50,HL-60,> 100 µM (inactive)
same,GI50,HOP-62,> 100 µM (inactive)
same,GI50,UACC-257,> 100 µM (inactive)
same,GI50,HT-29,> 100 µM (inactive)
same,GI50,SK-MEL-5,> 100 µM (inactive)
same,GI50,U-251,> 100 µM (inactive)
same,GI50,NCI-H522,> 100 µM (inactive)
same,GI50,A549,> 100 µM (inactive)
same,GI50,TK-10,> 100 µM (inactive)
same,GI50,SN12C,> 100 µM (inactive)
same,GI50,RPMI-8226,> 100 µM (inactive)
same,GI50,OVCAR-4,> 100 µM (inactive)
same,GI50,A498,> 100 µM (inactive)
same,GI50,MDA-MB-435,> 100 µM (inactive)
same,GI50,SW-620,> 100 µM (inactive)
same,GI50,NCI-H226,> 100 µM (inactive)
same,GI50,SK-OV-3,> 100 µM (inactive)
same,GI50,SK-MEL-2,> 100 µM (inactive)
same,GI50,SR,> 100 µM (inactive)
same,GI50,K562,> 100 µM (inactive)
same,GI50,OVCAR-5,> 100 µM (inactive)
same,GI50,MCF7,> 100 µM (inactive)
same,GI50,MOLT-4,> 100000 nM (inactive)
same,GI50,CAKI-1,> 100 µM (inactive)
same,GI50,UO-31,> 100 µM (inactive)
same,GI50,SNB-19,> 100 µM (inactive)
same,GI50,T47D,> 100 µM (inactive)
same,GI50,NCI-H460,> 100 µM (inactive)
same,GI50,SNB-75,87.9 µM (inactive)
same,GI50,SF-268,> 100 µM (inactive)
same,GI50,IGROV-1,> 100 µM (inactive)
same,GI50,M14,> 100 µM (inactive)
same,GI50,Hs-578T,> 100 µM (inactive)
same,GI50,DU-145,> 100 µM (inactive)
same,GI50,SF-539,> 100 µM (inactive)
same,GI50,HCT-116,> 100 µM (inactive)
same,GI50,EKVX,> 100 µM (inactive)
same,GI50,CCRF-CEM,> 100 µM (inactive)
same,GI50,COLO 205,> 100 µM (inactive)
same,GI50,PC-3,> 100 µM (inactive)
same,GI50,KM12,> 100 µM (inactive)
same,GI50,NCI/ADR-RES,> 100 µM (inactive)
same,GI50,786-0,> 100 µM (inactive)
same,GI50,BT-549,> 100 µM (inactive)
same,GI50,SF-295,> 100 µM (inactive)
